Data published in US7820690B2, “Method of treating or inhibiting a non-digestive tract derived abdominal disorder associated with pain using a 5-HT, receptor antagonist” (Solvay Pharmaceuticals GmbH, priority 2004, dated 2010).
Where two headings read alike, the source gives them in different places.

System: rats with cyclophosphamide-induced cystitis
Experiment: cystometry in rats with cyclophosphamide-induced cystitis
Format: in vivo, male Wistar rats
Details: for inhibition at 0.01 mg/kg / inhibition at 0.1 mg/kg: Rattus norvegicus, iv; for inhibition at 0.01 mg/kg: group 4, cilansetron 0.01 mg/kg i.v.; for inhibition at 0.1 mg/kg: group 5, cilansetron 0.1 mg/kg i.v.
Method: In this test model, the effect of 5-HT3 receptor antagonists on rats with cyclophosphamide-induced cystitis was investigated.
Inflammation of the bladder responsible for bladder overactivity was induced by an intraperitoneal (i.p.) cyclophosphamide injection (150 mg/kg, i.p.) 48 hours before testing (Maggi et al., J Auton Nerv Syst 38 (1992) 201) using male Wistar rats weighing 300-350 g. The rats were anesthetized with urethane delivered subcutaneously in saline (1.2 g/kg), and their temperature was maintained at 37° C. Following a midline abdominal incision, a catheter was inserted through the bladder dome and sealed with a tie. The catheter was connected via a T-tube to a pressure transducer and a syringe pump, to allow filling of the bladder with warm (37° C.) saline at 50 μl/min simultaneously with recording of intravesical pressure. This catheter was later used for cystometry.
For each voiding and non-voiding contraction, the threshold pressure (ThP, corresponding to the bladder pressure at the onset of the voiding contraction (mm Hg)), the maximal voiding pressure (MP, defined by the maximal bladder pressure reached during voiding contraction (mm Hg)) the basal pressure (BaP, defined by the lowest bladder pressure reached after the voiding contraction (mm Hg)) and the area under the curve of the bladder pressure (AUP) during voiding (mm Hg×s) was calculated for each rat and averaged for each condition. In addition, the frequency of contractions was determined.
Test groups consisting of 10 rats each were used. Drug treatments were carried out as described in the following Table 1.
In groups 2 through 5, cystitis was induced by administration of cyclophosphamide 150 mg/kg intraperitoneally (i.p.) 48 hours before the experiment. Group 1 served as a control group. Drugs or vehicle to be tested were injected 10 minutes before the beginning of cystometry. Besides […] doses of cilansetron (groups 4-5), HOE140 (D-Arginyl-[Hyp3, Thi5, D-Tic7, Oic8]-bradykinin), a bradykinin 2 receptor antagonist, was used as a reference standard known to be active in this model. During the cystometry the pressure changes due to transvesical perfusion of warm saline at 50 μl/min were recorded over 60 minutes. Parameters (as outlined above) were analyzed for each bladder filling.

[1] = HOE140 130 μg/kg i.v., effect of treatment in cystitis rats
[2] = group 3, cyclophosphamide cystitis + HOE140 130 μg/kg i.v.
[3] = read-out: % inhibition of cystitis effects, basal pressure
[4] = read-out: % inhibition of cystitis effects, frequency
[5] = read-out: % inhibition of cystitis effects, threshold pressure
[6] = group 4, cyclophosphamide cystitis + cilansetron 0.01 mg/kg i.v.
[7] = group 5, cyclophosphamide cystitis + cilansetron 0.1 mg/kg i.v.

D-Arginyl-[Hyp3, Thi5, D-Tic7, Oic8]-bradykinin [HOE140]
area under the curve of the bladder contractions [1]: not affected | first micturition volume [1]: not affected | micturition pressure [1]: not affected | symptoms of bladder overactivity associated with cyclophosphamide pretreatment (acute treatment, HOE140 130 μg/kg): reduced the symptoms of bladder overactivity | % inhibition of cystitis effects, basal pressure (group 3, HOE140 130 μg/kg i.v.): 50% | % inhibition of cystitis effects, frequency (group 3, HOE140 130 μg/kg i.v.): 25% | % inhibition of cystitis effects, threshold pressure (group 3, HOE140 130 μg/kg i.v.): 60% | frequency of bladder contractions [2]: 30 h⁻¹ | threshold pressure [2]: 17 mmHg | basal pressure (group 3, cyclophosphamide cystitis + HOE140 130 μg/kg i.v., 10 minutes before cystometry): 16 mmHg

Cc1nccn1C[C@H]1CCc2c(c3cccc4c3n2CCC4)C1=O [cilansetron, (R)-(−)-4,5,6,8,9,10-hexahydro-10-[(2-methyl-1H-imidazol-1-yl)methyl]-11H-pyrido-[3,2,1-jk]-carbazol-11-one]
inhibition at 0.01 mg/kg [3]: 50% | inhibition at 0.01 mg/kg [4]: 45% | inhibition at 0.01 mg/kg [5]: 60% | inhibition at 0.1 mg/kg [3]: 83% | inhibition at 0.1 mg/kg [4]: 35% | inhibition at 0.1 mg/kg [5]: 100% | effectiveness compared with reference compound HOE 140 (cilansetron 0.01 mg/kg i.v.): similarly effective to, or even more effective than | symptoms of bladder overactivity associated with cyclophosphamide pretreatment (cilansetron 0.01 and 0.1 mg/kg, compared with HOE140): reduced these symptoms to an equivalent or slightly greater extent | beneficial effect compared with HOE140 (cystometry in rats with cyclophosphamide-induced cystitis, overall conclusion): superior | basal pressure [6]: 16 mmHg | frequency of bladder contractions [6]: 26 h⁻¹ | threshold pressure [6]: 17 mmHg | basal pressure [7]: 14 mmHg | frequency of bladder contractions [7]: 28 h⁻¹ | threshold pressure [7]: 15 mmHg
